Patent US6737383B1, “Herbicidal oxadiazolidines” (priority 1999, dated 2004)

Legend:
rape = assay: Test B pre/postemergence rape; assay type: in vivo, Brassica napus; details: for Plant response rating, Rape: scale of 0 to 10 where 0 is no effect and 10 is complete control
In short: (§1)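 Response is a visual 0-to-10 score relative to untreated plants, where 0 means no effect and 10 means complete control, taken twelve to sixteen days after application. Treatments went onto soil at planting and onto foliage of 1- to 4-leaf plants, using a surfactant-containing non-phytotoxic solvent.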

smallflower flatsedge = assay: Test B flood test smallflower flatsedge; assay type: in vivo, Cyperus difformis
In short: (§2)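 Flood test on plants grown to the 2-leaf stage; treated plants kept in greenhouse twelve to sixteen days, then visually rated against controls on a 0 (no effect) to 10 (complete control) scale.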

giant foxtail = assay: Test B pre/postemergence giant foxtail; assay type: in vivo, Setaria faberii
In short: as §1

rice = assay: Test B flood test rice; assay type: in vivo, Oryza sativa
In short: as §2

bamyardgrass = assay: Test B flood test barnyardgrass; assay type: in vivo, Echinochloa crus-galli
In short: as §2

sugar beet = assay: Test B pre/postemergence sugar beet; assay type: in vivo, Beta vulgaris; details: for Plant response rating, Sugarbeets: scale of 0 to 10 where 0 is no effect and 10 is complete control
In short: as §1

purple nutsedge = assay: Test B pre/postemergence purple nutsedge; assay type: in vivo, Cyperus rotundus; details: for Plant response rating, Nutsedge: scale of 0 to 10 where 0 is no effect and 10 is complete control
In short: as §1

morningglory = assay: Test B pre/postemergence morningglory; assay type: in vivo, Ipomoea hederacea; details: for Plant response rating, Morningglory: scale of 0 to 10 where 0 is no effect and 10 is complete control
In short: as §1

velvetleaf = assay: Test B pre/postemergence velvetleaf; assay type: in vivo, Abutilon theophrasti; details: for Plant response rating, Velvetleaf: scale of 0 to 10 where 0 is no effect and 10 is complete control
In short: as §1

soybean = assay: Test B pre/postemergence soybean; assay type: in vivo, Glycine max; details: for Plant response rating, Soybean: scale of 0 to 10 where 0 is no effect and 10 is complete control
In short: as §1

corn = assay: Test B pre/postemergence corn; assay type: in vivo, Zea mays
In short: as §1

surinam grass = assay: Test B pre/postemergence surinam grass; assay type: in vivo, Brachiaria decumbens
In short: as §1

blackgrass = assay: Test B pre/postemergence blackgrass; assay type: in vivo, Alopecurus myosuroides
In short: as §1

duck salad = assay: Test B flood test duck salad; assay type: in vivo, Heteranthera limosa
In short: as §2

bedstraw = assay: Test B pre/postemergence bedstraw; assay type: in vivo, Galium aparine; details: Preemergence, scale of 0 to 10 where 0 is no effect and 10 is complete control
In short: as §1

pigweed = assay: Test B pre/postemergence pigweed; assay type: in vivo, Amaranthus retroflexus; details: for Plant response rating, Redroot pigweed: scale of 0 to 10 where 0 is no effect and 10 is complete control
In short: as §1

[1] = Postemergence, Rate 250 g/ha, scale 0 to 10
[2] = Preemergence, Rate 250 g/ha, scale 0 to 10, 0 is no effect, 10 is complete control
[3] = Preemergence, Rate 500 g/ha, scale 0 to 10, 0 is no effect, 10 is complete control
[4] = Rate 62 g/ha, Postemergence, scale 0 to 10, 0 no effect, 10 complete control
[5] = Rate 125 g/ha, Postemergence, scale 0 to 10, 0 is no effect, 10 is complete control
[6] = Rate 62 g/ha, flood test species, Pre-emergence, visual evaluation after twelve to sixteen days
[7] = Rate 125 g/ha, under heading Pre-emergence, flood test species, visual evaluation after twelve to sixteen days
[8] = Rate 250 g/ha, Pre-emergence (flood test species), scale 0 to 10, 0 is no effect, 10 is complete control
[9] = Rate 500 g/ha, Pre-emergence, flood test species, scale 0 to 10 (0 no effect, 10 complete control)
[10] = Postemergence, Rate 500 g/ha, scale of 0 to 10 where 0 is no effect and 10 is complete control
[11] = Preemergence, Rate 62 g/ha, scale of 0 to 10 where 0 is no effect and 10 is complete control
[12] = Preemergence, Rate 125 g/ha, scale of 0 to 10 where 0 is no effect and 10 is complete control

CC(C)N(C(=O)n1oc(=O)n(CC#N)c1=O)c1ccc(Cl)cc1 [Compound 476]
Rape plant response rating (rape; [1]): 0 | Plant response rating, Rape (rape; Preemergence, Rate 62 g/ha): 0 | Plant response rating, Rape (rape; Preemergence, Rate 125 g/ha): 0 | Rape plant response rating (rape; [2]): 0 | Rape plant response rating (rape; [3]): 0 | Rape plant response rating (rape; [4]): 0 | Rape plant response rating (rape; [5]): 0 | Plant response rating, S. Flatsedge (0 to 10 scale, 0 is no effect, 10 is complete control) (smallflower flatsedge; [6]): 0 | S. Flatsedge plant response rating (0 to 10 scale, 0 is no effect, 10 is complete control) (smallflower flatsedge; [7]): 0 | S. Flatsedge plant response rating (smallflower flatsedge; [8]): 0 | S. Flatsedge plant response rating (smallflower flatsedge; [9]): 0 | Giant foxtail plant response rating (giant foxtail; [1]): 0 | Giant foxtail plant response rating (giant foxtail; [10]): 0 | Plant response rating, Giant foxtail (giant foxtail; [11]): 0 | Plant response rating, Giant foxtail (giant foxtail; [12]): 0 | Giant foxtail plant response rating (giant foxtail; [2]): 0 | Giant foxtail plant response rating (giant foxtail; [3]): 0 | Giant foxtail plant response rating (giant foxtail; [4]): 0 | Giant foxtail plant response rating (giant foxtail; [5]): 0 | Plant response rating, Rice (0 to 10 scale, 0 is no effect, 10 is complete control) (rice; [6]): 0 | Rice plant response rating (0 to 10 scale, 0 is no effect, 10 is complete control) (rice; [7]): 0 | Rice plant response rating (rice; [8]): 0 | Rice plant response rating (rice; [9]): 0 | Plant response rating, Barnyardgrass (0 to 10 scale, 0 is no effect, 10 is complete control) (bamyardgrass; [6]): 0 | Barnyardgrass plant response rating (0 to 10 scale, 0 is no effect, 10 is complete control) (bamyardgrass; [7]): 0 | Barnyardgrass plant response rating (bamyardgrass; [8]): 0 | Barnyardgrass plant response rating (bamyardgrass; [9]): 0 | Sugarbeets plant response rating (sugar beet; [1]): 0 | Plant response rating, Sugarbeets (sugar beet; Preemergence, Rate 62 g/ha): 0 | Plant response rating, Sugarbeets (sugar beet; Preemergence, Rate 125 g/ha): 0 | Sugarbeets plant response rating (sugar beet; [2]): 0 | Sugarbeets plant response rating (sugar beet; [3]): 0 | Sugarbeets plant response rating (sugar beet; [4]): 0 | Sugarbeets plant response rating (sugar beet; [5]): 0 | Nutsedge plant response rating (purple nutsedge; [1]): 0 | Plant response rating, Nutsedge (purple nutsedge; Preemergence, Rate 62 g/ha): 0 | Plant response rating, Nutsedge (purple nutsedge; Preemergence, Rate 125 g/ha): 0 | Nutsedge plant response rating (purple nutsedge; [2]): 0 | Nutsedge plant response rating (purple nutsedge; [3]): 0 | Nutsedge plant response rating (purple nutsedge; [4]): 0 | Nutsedge plant response rating (purple nutsedge; [5]): 0 | Morningglory plant response rating (morningglory; [1]): 0 | Plant response rating, Morningglory (morningglory; Preemergence, Rate 62 g/ha): 0 | Plant response rating, Morningglory (morningglory; Preemergence, Rate 125 g/ha): 0 | Morningglory plant response rating (morningglory; [2]): 0 | Morningglory plant response rating (morningglory; [3]): 0 | Morningglory plant response rating (morningglory; [4]): 0 | Morningglory plant response rating (morningglory; [5]): 0 | Velvetleaf plant response rating (velvetleaf; [1]): 2 | Plant response rating, Velvetleaf (velvetleaf; Preemergence, Rate 62 g/ha): 0 | Plant response rating, Velvetleaf (velvetleaf; Preemergence, Rate 125 g/ha): 0 | Velvetleaf plant response rating (velvetleaf; [2]): 0 | Velvetleaf plant response rating (velvetleaf; [3]): 0 | Velvetleaf plant response rating (velvetleaf; [4]): 0 | Velvetleaf plant response rating (velvetleaf; [5]): 1 | Soybean plant response rating (soybean; [1]): 2 | Plant response rating, Soybean (soybean; Preemergence, Rate 62 g/ha): 0 | Plant response rating, Soybean (soybean; Preemergence, Rate 125 g/ha): 0 | Soybean plant response rating (soybean; [2]): 0 | Soybean plant response rating (soybean; [3]): 0 | Soybean plant response rating (soybean; [4]): 0 | Soybean plant response rating (soybean; [5]): 1 | Corn plant response rating (corn; [1]): 0 | Corn plant response rating (corn; [10]): 0 | Plant response rating, Corn (corn; [11]): 0 | Plant response rating, Corn (corn; [12]): 0 | Corn plant response rating (corn; [2]): 0 | Corn plant response rating (corn; [3]): 0 | Corn plant response rating (corn; [4]): 0 | Corn plant response rating (corn; [5]): 0 | B. signalgrass plant response rating (surinam grass; Postemergence, Rate 250 g/ha, scale 0 to 10, 0 no effect, 10 complete control): 0 | B. signalgrass plant response rating (surinam grass; [10]): 0 | Plant response rating, B. signalgrass (surinam grass; [11]): 0 | Plant response rating, B. signalgrass (surinam grass; [12]): 0 | B. signalgrass plant response rating (surinam grass; [2]): 0 | B. signalgrass plant response rating (surinam grass; [3]): 0 | B. signalgrass plant response rating (surinam grass; [4]): 0 | B. signalgrass plant response rating (surinam grass; [5]): 0 | Blackgrass plant response rating (blackgrass; [1]): 0 | Blackgrass plant response rating (blackgrass; [10]): 2 | Plant response rating, Blackgrass (blackgrass; [11]): 0 | Plant response rating, Blackgrass (blackgrass; [12]): 0 | Blackgrass plant response rating (blackgrass; [2]): 0 | Blackgrass plant response rating (blackgrass; [3]): 0 | Blackgrass plant response rating (blackgrass; [4]): 0 | Blackgrass plant response rating (blackgrass; [5]): 0 | Plant response rating, Ducksalad (0 to 10 scale, 0 is no effect, 10 is complete control) (duck salad; [6]): 0 | Ducksalad plant response rating (0 to 10 scale, 0 is no effect, 10 is complete control) (duck salad; [7]): 0 | Ducksalad plant response rating (duck salad; [8]): 0 | Ducksalad plant response rating (duck salad; [9]): 0 | Plant response rating, Bedstraw (bedstraw; Rate 62 g/ha): 0 | Plant response rating, Bedstraw (bedstraw; Rate 125 g/ha): 0 | Redroot pigweed plant response rating (pigweed; [1]): 0 | Plant response rating, Redroot pigweed (pigweed; Preemergence, Rate 62 g/ha): 0 | Plant response rating, Redroot pigweed (pigweed; Preemergence, Rate 125 g/ha): 0 | Redroot pigweed plant response rating (pigweed; [2]): 2 | Redroot pigweed plant response rating (pigweed; [3]): 4 | Redroot pigweed plant response rating (pigweed; [4]): 0 | Redroot pigweed plant response rating (pigweed; [5]): 0
